Data: PMC3090393, “New Noncovalent Inhibitors of Penicillin-Binding Proteins from Penicillin-Resistant Bacteria” (PLoS ONE, 2011)
Values after ≈ are worked out from the molar mass of the structure shown. Like-named read-outs stand apart in the source and are kept apart here.

How the values were obtained:
[1] = system: protoplasts of S. aureus ATCC43300 resistant strain; assay: Effect on protoplasts; assay type: cell-based, Staphylococcus aureus; conditions: concentration equivalent to 4 times the MIC; after ten minutes
Description: The importance of this hit compound is further underlined by its very promising minimum inhibitory concentrations (MICs) against several Gram-positive bacterial strains, including MRSA (32 µg/mL). […] This assumption is confirmed by the fact that for S. aureus ATCC25923 strain, sensitive to penicillin and devoid of PBP2a, compound 1 has the same MIC value as for the other two resistant S. aureus strains (Table 2) where PBP2a is present. To better understand the antibacterial activity of compound 1, we performed an experiment to evaluate the effect of compound 1 on the protoplasts of S. aureus ATCC43300 resistant strain, at a concentration equivalent to 4 times the MIC. […] Further analysis is needed to better understand the precise mode of action of these inhibitors on the bacterial cell.

[2] = system: Staphylococcus aureus ATCC 25923; assay: In-vitro antibacterial activity (MIC, broth microdilution); assay type: cell-based; conditions: ATCC25923
Description: (§1) Determination of the antibacterial activities was carried out on microtiter plates, in 200 µL (final volume) of Müeller-Hinton Broth (MHB), following EUCAST (European Committee on Antimicrobial Susceptibility testing)/CLSI (Clinical and Laboratory Standard Institute) recommended procedures, [25]. The compounds were solubilized in MHB, just before use. Inocula were prepared for each strain by resuspending isolated colonies from 18 h cultured plates. Equivalents of 0.5 Mac Farland turbidity standards (approximately 1×10^8 CFU mL^−1) were prepared in saline solution ([…]) and then diluted 200-fold in MBH.

[3] = system: Enterococcus faecalis ATCC 7937; assay: as above; assay type: cell-based; conditions: ATCC7937
Description: as §1

[4] = system: Streptococcus pneumoniae ATCC 33400; assay: as above; assay type: cell-based; conditions: ATCC33400
Description: as §1

[5] = system: Enterococcus faecalis ATCC 29212; assay: as above; assay type: cell-based; conditions: ATCC29212
Description: as §1

[6] = system: Staphylococcus aureus mp 1 (inducible MRSA); assay: as above; assay type: cell-based
Description: as §1

[7] = system: Enterococcus faecium ATCC 19434; assay: as above; assay type: cell-based; conditions: ATCC19434
Description: as §1

[8] = system: all of the Staphylococcus aureus tested strains; assay: In-vitro antibacterial activity (MIC), Staphylococcus aureus strains; assay type: cell-based
Description: as §1

PBP2x 5204 = PBP2x 5204 (Streptococcus pneumoniae, UniProt P59676); assay: PBP2x 5204 enzymatic inhibition assay (S2d hydrolysis, DTNB); assay type: biochemical, Streptococcus pneumoniae strain 5204
Description: PBP2x-5204 from Streptococcus pneumonia and N-benzoyl-D-alanyl-thioglycolate S2d[21], [22] were prepared as previously described. All assays with PBP2x 5204 were carried out in 96-well microtiter plates (Brand, Wertheim, Germany). PBP2x 5204 (0.6 µM) was incubated in the presence of the potential inhibitors in 10 mM sodium phosphate buffer (pH 7.0) containing 70 mM D-alanine and 0.01 mg/mL BSA, for 4 h at 25°C. This preincubation was used to also detect slow binding inhibitors. After the preincubation, the RA of PBP2x 5204 was determined. The initial rate of hydrolysis of 1 mM S2d in the presence of 1 mM DTNB was determined by monitoring the increase in absorbance at 412 nm (DTNB: ε[Δ ε] = […]) using a microplate absorbance reader (Power Wave X, Biotek Instruments, Winooski, U.S.A.). The rate of spontaneous hydrolysis of S2d in the presence of the potential inhibitors was also determined in the absence of PBP2x 5204. All of the assays were carried out in triplicate. The determination of the RA of PBP2x 5204 in the absence of inhibitors was carried out six times on each plate. A test compound was considered as an inhibitor if the RA was <80%. In this case, to reveal false positives, the assays were also carried out under the same conditions in the presence of 0.01% Triton X-100. As described in the literature, promiscuous inhibitors (false positives) are slow binding, noncompetitive inhibitors. To avoid detailed kinetic investigations, it is possible to identify such compounds by carrying out the assays in the presence of Triton X-100[14], [19]. Promiscuous inhibitors show no inhibition in the presence of Triton X-100. The IC50 values in the presence of Triton X-100 were determined if the RAs were <50%. (RA: ∼50%, IC50∼c, c: concentration of compound in the assay; RA >50%, IC50 > c). The RA was measured over a range of concentrations, from which the IC50 values were determined by non-linear regression analysis, using Sigma Plot (Systat software) and fitting the data to the equation y = y0+(a×b)/(b+x)[23].

PBP2a = target: T1, PBP2a (Staphylococcus aureus, UniProt P07944); assay: PBP2a enzymatic inhibition assay (fluorescein-labeled ampicillin, residual penicillin binding activity); assay type: biochemical, Staphylococcus aureus ATCC 43300
T1 construct: made in house
Description: (§2) PBP2a from Staphylococcus aureus ATCC 43300 and PBP5fm from Enterococcus faecium D63r were overproduced and purified as described previously, [18].
(§3) Each of the purified PBPs (2.5 µM) were first incubated with 1 mM potential inhibitor in 100 mM phosphate buffer, 0.01% Triton X-100[19], pH 7, for 4 h at 30°C. Then, 25 µM fluorescein-labeled ampicillin[20] was added to detect the residual penicillin binding activity (RA). The samples were further incubated for 30 min at 37°C in a total volume of 20 µL. Denaturation buffer was added (0.1 M Tris/HCl, pH 6.8, containing 25% glycerol, 2% SDS, 20% β-mercaptoethanol and 0.02% bromophenol blue) and the samples were heated to 100°C for 1 min. The samples were then loaded onto a 10% SDS-acrilamide gel (10×7 cm) and electrophoresis was performed for 45 min at 180 V (12 mA). Detection and quantification of the RAs were with Molecular Image FX equipment and Quantity One software (BioRad, Hercules, CA, USA). Three independent experiments were carried out for each inhibitor.

[9] = system: S. aureus ATCC43300 resistant strain; assay: Killing curves experiments; assay type: cell-based, Staphylococcus aureus; conditions: concentration equivalent to 4 times the MIC; data not shown
PBP5fm = PBP5fm (Enterococcus faecium, UniProt Q47759); assay: PBP5fm enzymatic inhibition assay (fluorescein-labeled ampicillin, residual penicillin binding activity); assay type: biochemical, Enterococcus faecium D63r; conditions: 4 h; residual activity of the enzyme at 1 mM inhibitor; 0.01% Triton X-100; read-out: PBP5fm RA [%]
Description: as §2, §3

Sequence of PBP2x 5204 (P59676 49-750): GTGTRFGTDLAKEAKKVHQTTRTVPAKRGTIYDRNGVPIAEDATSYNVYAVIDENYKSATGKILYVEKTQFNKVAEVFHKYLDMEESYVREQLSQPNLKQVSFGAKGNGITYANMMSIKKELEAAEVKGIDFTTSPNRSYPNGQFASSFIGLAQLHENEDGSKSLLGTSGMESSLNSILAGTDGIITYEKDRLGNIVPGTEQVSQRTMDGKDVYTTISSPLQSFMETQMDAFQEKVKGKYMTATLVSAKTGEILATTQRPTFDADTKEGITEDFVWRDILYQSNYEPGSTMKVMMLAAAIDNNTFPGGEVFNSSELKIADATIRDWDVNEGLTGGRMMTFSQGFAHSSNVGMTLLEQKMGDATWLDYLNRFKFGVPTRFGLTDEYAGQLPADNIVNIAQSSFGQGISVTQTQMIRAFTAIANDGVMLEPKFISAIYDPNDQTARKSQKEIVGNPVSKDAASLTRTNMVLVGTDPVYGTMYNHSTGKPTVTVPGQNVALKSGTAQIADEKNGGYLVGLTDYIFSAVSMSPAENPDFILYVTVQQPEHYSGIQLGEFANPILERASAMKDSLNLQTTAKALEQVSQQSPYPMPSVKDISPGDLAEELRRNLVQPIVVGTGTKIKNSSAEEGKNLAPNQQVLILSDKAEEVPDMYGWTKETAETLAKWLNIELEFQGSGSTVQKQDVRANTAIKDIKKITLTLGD
T1 sequence (P07944 whole entry): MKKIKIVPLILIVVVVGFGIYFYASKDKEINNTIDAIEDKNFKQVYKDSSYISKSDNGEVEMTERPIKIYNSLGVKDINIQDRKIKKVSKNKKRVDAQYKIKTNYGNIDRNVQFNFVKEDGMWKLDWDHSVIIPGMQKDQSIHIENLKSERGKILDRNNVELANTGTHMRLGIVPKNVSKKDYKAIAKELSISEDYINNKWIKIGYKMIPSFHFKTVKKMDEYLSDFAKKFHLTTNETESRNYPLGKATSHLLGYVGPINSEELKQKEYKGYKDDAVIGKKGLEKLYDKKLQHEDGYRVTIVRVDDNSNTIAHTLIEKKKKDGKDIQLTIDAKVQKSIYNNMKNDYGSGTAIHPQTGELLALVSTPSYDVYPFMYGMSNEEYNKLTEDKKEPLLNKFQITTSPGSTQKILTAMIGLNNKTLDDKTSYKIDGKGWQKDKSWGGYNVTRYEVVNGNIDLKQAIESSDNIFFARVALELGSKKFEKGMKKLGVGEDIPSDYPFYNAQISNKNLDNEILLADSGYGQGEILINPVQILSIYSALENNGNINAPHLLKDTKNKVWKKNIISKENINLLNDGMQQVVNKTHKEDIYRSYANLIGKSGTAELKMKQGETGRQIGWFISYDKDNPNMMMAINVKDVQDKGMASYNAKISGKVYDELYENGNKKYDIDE
Sequence of PBP5fm (Q47759 entry or part of it): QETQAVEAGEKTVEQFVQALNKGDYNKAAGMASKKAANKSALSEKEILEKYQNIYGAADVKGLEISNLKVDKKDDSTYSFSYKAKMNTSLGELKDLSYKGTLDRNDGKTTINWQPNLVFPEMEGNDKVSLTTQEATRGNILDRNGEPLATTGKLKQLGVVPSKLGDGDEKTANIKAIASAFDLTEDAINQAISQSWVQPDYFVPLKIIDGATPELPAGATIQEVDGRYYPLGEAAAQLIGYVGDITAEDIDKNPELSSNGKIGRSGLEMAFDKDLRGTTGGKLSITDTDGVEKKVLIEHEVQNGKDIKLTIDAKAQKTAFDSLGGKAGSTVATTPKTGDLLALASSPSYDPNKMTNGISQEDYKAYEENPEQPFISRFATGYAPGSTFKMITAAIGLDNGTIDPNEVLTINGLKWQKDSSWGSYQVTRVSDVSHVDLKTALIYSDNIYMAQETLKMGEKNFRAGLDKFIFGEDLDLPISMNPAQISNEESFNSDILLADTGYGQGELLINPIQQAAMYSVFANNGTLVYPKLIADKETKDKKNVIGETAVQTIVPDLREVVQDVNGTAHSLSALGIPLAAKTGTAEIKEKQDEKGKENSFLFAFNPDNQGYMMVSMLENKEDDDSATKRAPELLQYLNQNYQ

With `CCCCOc1ccc2cc(S(=O)(=O)Nc3ccccc3C(=O)O)ccc2c1` [compound 1, 2-(6-butoxynaphthalene-2-sulfonamido)benzoic acid] the melting point was 192 to 194 °C, the effect on protoplasts [1] was “complete lysis of protoplasts” and the MIC [2] was 32 µg/mL (≈ 80.1 µM). For the same compound, the MIC [3] was 16 µg/mL (≈ 40.1 µM), the MIC [4] was 1 µg/mL (≈ 2.5 µM) and the MIC [5] was 32 µg/mL (≈ 80.1 µM). It also gave an MIC [6] of 32 µg/mL (≈ 80.1 µM), an MIC [7] of 64 µg/mL (≈ 160 µM) and an MIC ([8]; MRSA, read-out: minimum inhibitory concentration (MIC) against MRSA) of 32 µg/mL. For the same compound, the MIC ([8]; all S. aureus tested strains, converted from µg/ml, read-out: MIC value for all of the Staphylococcus aureus tested strains) was 80 µM, the MIC ([8]; all S. aureus tested strains, read-out: MIC value for all of the Staphylococcus aureus tested strains) was 32 µg/mL and the IC50 (PBP2x 5204; read-out: PBP2x5204 IC50, in the presence of 0.01% Triton X-100) was 391 µM. For the same compound, the “PBP2x5204 RA [%]” value (PBP2x 5204; residual activity of the enzyme at 500 µM inhibitor, 240 min) was 38%, the remaining activity at 1000 µM (PBP2a; 4 h, residual activity of the enzyme at 1 mM inhibitor, 0.01% Triton X-100, mean of three experiments, read-out: PBP2a RA [%]) was 0% and the IC50 (PBP2a; in the presence of 0.01% Triton X-100) was 97 µM. The “killing curves, bacterial count” value [9] was “no viable cells were observed after 120 min” and the activity at 1000 µM (PBP5fm) was 100%.
